One data set deals with T1, BRM (Homo sapiens, UniProt P51531).
T1 construct: endogenous in cells; host or cells: HCC515 and H1944 (NCI-H1944) cells
As to the kind of experiment: Cell assays to determine DC50 and Dmax (nuclear BRM immunofluorescence after Ab-CIDE treatment). The class given is cell-based. Set-up: DCmax (NCI-H1944): unit not given here. The note with it: NCI-H1944 cells, 24 h drug treatment. As for the experimental part: HCC515 and H1944 cells were plated in 384 well plates at 4000 and 2500 cells/well, respectively. The next day Ab-CIDEs were added. Following 24 h of drug treatment the cells were fixed with […] for 15 minutes. The plates were washed three time with PBS. The cells were incubated with IF blocking solution ([…], 10% BSA, 0.1% Triton, 0.010% Azide, X-100 in PBS). After 1.5 h a 2× solution of primary antibody diluted in IF blocking buffer: BRM (Cell signaling Cat #11966, 1:2000) was added. The plates were incubated over night at 4° C. The following morning cells were washed three time with PBS. Cells were then incubated with secondary antibodies (rabbit-Alexa 488 A21206 (1:2000)) for 1 h at room temperature in the dark. Hoechst H3570 at 1:5000 was added to the wells and the plates were incubated for an additional 30 minutes. Plates were wash 3×PBS and image on Opera Phenix™ High Content Screening System. Using nuclear staining as a mask, nuclear BRM mean signal intensity was quantified.

The nature of data set [1]: Stability of antibody-conjugated L1-CIDE at high DAR (DAR 14 synthesis). The format is physicochemical. To be noted: antibody conjugate from DAR 14 synthesis. The source says:
The hydrolysable linkers therefore are able to provide an advantage in obtaining high DAR, which results in high numbers of CTDEs that can be attached to a single antibody.

[2] abbreviates: Ab target TfR2, conjugate DAR 5.41-6.14.
The mark [3] stands for this setting: Ab target TfR2, high-DAR conjugate (DAR 13.13-13.75).

T1 sequence (P51531 whole entry): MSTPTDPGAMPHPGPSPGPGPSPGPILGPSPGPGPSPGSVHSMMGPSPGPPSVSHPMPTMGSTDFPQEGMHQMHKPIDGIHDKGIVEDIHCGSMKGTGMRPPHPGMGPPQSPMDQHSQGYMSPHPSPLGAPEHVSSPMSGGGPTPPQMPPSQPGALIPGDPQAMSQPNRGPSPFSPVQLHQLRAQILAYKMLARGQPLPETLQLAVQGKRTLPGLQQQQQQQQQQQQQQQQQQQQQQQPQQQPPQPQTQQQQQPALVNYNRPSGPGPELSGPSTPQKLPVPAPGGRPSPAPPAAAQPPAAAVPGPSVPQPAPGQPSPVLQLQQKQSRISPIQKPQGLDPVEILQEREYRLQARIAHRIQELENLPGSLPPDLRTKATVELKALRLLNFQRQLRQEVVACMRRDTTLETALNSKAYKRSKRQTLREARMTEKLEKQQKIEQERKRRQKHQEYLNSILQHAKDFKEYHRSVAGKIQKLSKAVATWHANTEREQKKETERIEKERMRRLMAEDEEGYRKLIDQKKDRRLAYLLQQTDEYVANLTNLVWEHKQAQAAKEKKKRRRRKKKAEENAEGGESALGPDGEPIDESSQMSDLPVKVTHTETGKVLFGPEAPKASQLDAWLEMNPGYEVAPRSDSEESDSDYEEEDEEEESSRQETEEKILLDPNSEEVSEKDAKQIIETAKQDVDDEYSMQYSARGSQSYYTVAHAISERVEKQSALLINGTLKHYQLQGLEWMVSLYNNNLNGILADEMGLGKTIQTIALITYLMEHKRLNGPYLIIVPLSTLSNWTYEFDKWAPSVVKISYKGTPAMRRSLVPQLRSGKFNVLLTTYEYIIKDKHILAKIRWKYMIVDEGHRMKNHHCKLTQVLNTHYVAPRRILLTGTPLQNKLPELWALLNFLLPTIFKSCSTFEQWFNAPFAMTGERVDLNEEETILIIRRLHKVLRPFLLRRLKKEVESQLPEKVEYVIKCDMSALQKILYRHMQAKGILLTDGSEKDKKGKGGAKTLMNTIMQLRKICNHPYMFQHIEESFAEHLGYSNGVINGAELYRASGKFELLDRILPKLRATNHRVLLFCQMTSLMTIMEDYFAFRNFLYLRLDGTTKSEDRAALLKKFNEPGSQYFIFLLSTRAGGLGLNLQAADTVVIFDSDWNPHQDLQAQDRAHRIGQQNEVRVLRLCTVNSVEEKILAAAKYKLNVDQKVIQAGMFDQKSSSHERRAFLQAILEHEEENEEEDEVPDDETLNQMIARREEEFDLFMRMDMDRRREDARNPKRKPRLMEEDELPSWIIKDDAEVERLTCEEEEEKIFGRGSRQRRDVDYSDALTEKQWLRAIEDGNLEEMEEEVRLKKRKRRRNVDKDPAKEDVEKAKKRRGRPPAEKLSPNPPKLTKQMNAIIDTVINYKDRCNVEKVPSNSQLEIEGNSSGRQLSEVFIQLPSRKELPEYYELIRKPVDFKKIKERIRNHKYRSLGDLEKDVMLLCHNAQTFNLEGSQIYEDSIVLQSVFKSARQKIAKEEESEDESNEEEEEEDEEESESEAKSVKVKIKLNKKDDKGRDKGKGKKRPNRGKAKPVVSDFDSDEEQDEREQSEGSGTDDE

Consider `Cc1ncsc1-c1ccc([C@H](C)NC(=O)[C@@H]2C[C@@H](O)CN2C(=O)[C@@H](c2cc(OCCN3CCN(CCOc4cc(N5C6CCC5CN(c5cc(-c7ccccc7OCc7ccc(NC(=O)[C@H](CCCCN(C)C)NC(=O)C8(C(=O)NCCCCCNC(=O)[C@H](CO)N9C(=O)C=CC9=O)CCC8)cc7)nnc5N)C6)ccn4)[C@H](C)C3)no2)C(C)C)cc1.O=C(O)C(F)(F)F` [Hy-B-CIDE-1], for which, on BRM (setting [2]), the DC50 was 0.128 µM and the “DCmax (NCI-H1944)” value worked out at 89.

Consider `COC[C@@H](C(=O)NCCCCCNC(=O)C1(C(=O)N[C@@H](CCCCN(C)C)C(=O)Nc2ccc(COc3ccccc3-c3cc(N4CC5CCC(C4)N5c4ccnc(OCCN5CCN(CCOc6cc([C@H](C(=O)N7C[C@H](O)C[C@H]7C(=O)N[C@@H](C)c7ccc(-c8scnc8C)cc7)C(C)C)on6)C[C@H]5C)c4)c(N)nn3)cc2)CCC1)N1C(=O)C=CC1=O.O=C(O)C(F)(F)F` [Hy-B-CIDE-2], for which, on BRM (setting [2]), the DC50 was 0.16 µM and the “DCmax (NCI-H1944)” value was determined as 90.

In the case of `Cc1ncsc1-c1ccc([C@H](C)NC(=O)[C@@H]2C[C@@H](O)CN2C(=O)[C@@H](c2cc(OCCN3CCN(CCOc4cc(N5C6CCC5CN(c5cc(-c7ccccc7OCc7ccc(NC(=O)[C@H](CCCCN(C)C)NC(=O)C8(C(=O)NCCN(C)CCN9C(=O)C=CC9=O)CCC8)cc7)nnc5N)C6)ccn4)[C@H](C)C3)no2)C(C)C)cc1.O=C(O)C(F)(F)F` [Hy-B-CIDE-5], on BRM (setting [2]), the DC50 was 0.412 µM and the “DCmax (NCI-H1944)” value is on record as 76.

On to `Cc1ncsc1-c1ccc([C@H](C)NC(=O)[C@@H]2C[C@@H](O)CN2C(=O)[C@@H](c2cc(OCCN3CCN(CCOc4cc(N5C6CCC5CN(c5cc(-c7ccccc7OCc7ccc(NC(=O)[C@H](CCCCN(C)C)NC(=O)C8(C(=O)NCCCCCNC(=O)CN9C(=O)C=CC9=O)CCC8)cc7)nnc5N)C6)ccn4)[C@H](C)C3)no2)C(C)C)cc1.O=C(O)C(F)(F)F` [Hy-B-CIDE-6], for which, at BRM (setting [2]), the “DC50 (NCI-H1944)” value is 0.28 µg/mL and the “DCmax (NCI-H1944)” value is 90.

On to `CC(C)[C@@H](C(=O)N1C[C@H](O)C[C@H]1C(=O)N[C@@H](C)c1ccc(C#N)cc1)c1cc(OCCN2CCC(O[C@H]3C[C@H](Oc4cc(N5C6CCC5CN(c5cc(-c7ccccc7OCc7ccc(NC(=O)[C@H](CCCCN(C)C)NC(=O)C8(C(=O)NCCN(C)CCN9C(=O)C=CC9=O)CCC8)cc7)nnc5N)C6)ccn4)C3)CC2)no1` [Hy-B-CIDE-7], for which the Stability result in data set [1] is reported as “Stable”. Besides, the DC50 at BRM (setting [2]) is 0.205 µM; on BRM (Ab target TfR2, high-DAR conjugate (DAR 13.75)) it was 0.0896 µM. The figures for the “DCmax (NCI-H1944)” value at BRM (setting [2]) and on BRM (setting [3]) were 62 and 75, respectively.

On to `Cc1ncsc1-c1ccc([C@H](C)NC(=O)[C@@H]2C[C@@H](O)CN2C(=O)[C@@H](c2cc(OCCN3CCN(CCOc4cc(N5C6CCC5CN(c5cc(-c7ccccc7OCc7ccc(NC(=O)[C@H](CCCCN(C)C)NC(=O)C8(C(=O)NCCCCCN(C)CCN9C(=O)C=CC9=O)CCC8)cc7)nnc5N)C6)ccn4)[C@H](C)C3)no2)C(C)C)cc1.O=C(O)C(F)(F)F` [Hy-B-CIDE-8], for which, at BRM (setting [2]), the DC50 is 0.0856 µM and the “DCmax (NCI-H1944)” value stood at 74.

As to `CC(C)[C@@H](C(=O)N1C[C@H](O)C[C@H]1C(=O)N[C@@H](C)c1ccc(C#N)cc1)c1cc(OCCN2CCC(O[C@H]3C[C@H](Oc4cc(N5C6CCC5CN(c5cc(-c7ccccc7O)nnc5NC(=O)OCc5ccc(NC(=O)[C@H](CCCCN(C)C)NC(=O)C7(C(=O)NCCCCCN(C)CCN8C(=O)C=CC8=O)CCC7)cc5)C6)ccn4)C3)CC2)no1.O=C(O)C(F)(F)F` [Hy-B-CIDE-9], on BRM (setting [2]), the DC50 is 2.2 µM and the “DCmax (NCI-H1944)” value worked out at 82.

As for `CC(C)[C@@H](C(=O)N1C[C@H](O)C[C@H]1C(=O)N[C@@H](C)c1ccc(C#N)cc1)c1cc(OCCN2CCC(O[C@H]3C[C@H](Oc4cc(N5C6CCC5CN(c5cc(-c7ccccc7O)nnc5NC(=O)OCc5ccc(NC(=O)[C@H](CCCCN(C)C)NC(=O)C7(C(=O)NCCCCCNC(=O)[C@H](CO)N8C(=O)C=CC8=O)CCC7)cc5)C6)ccn4)C3)CC2)no1` [Hy-B-CIDE-10], at BRM (setting [2]), the DC50 is 4.44 µM and the “DCmax (NCI-H1944)” value was found to be 80.

With `CC(C)[C@@H](C(=O)N1C[C@H](O)C[C@H]1C(=O)N[C@@H](C)c1ccc(C#N)cc1)c1cc(OCCN2CCC(O[C@H]3C[C@H](Oc4cc(N5C6CCC5CN(c5cc(-c7ccccc7OCc7ccc(NC(=O)[C@H](CCCCN(C)C)NC(=O)C8(C(=O)NCCCCCN(C)CCN9C(=O)C=CC9=O)CCC8)cc7)nnc5N)C6)ccn4)C3)CC2)no1` [Hy-B-CIDE-11], at BRM (setting [2]), the DC50 is 23.2 µM and the “DCmax (NCI-H1944)” value stood at 53.

For `CC(C)[C@@H](C(=O)N1C[C@H](O)C[C@H]1C(=O)N[C@@H](C)c1ccc(C#N)cc1)c1cc(OCCN2CCC(O[C@H]3C[C@H](Oc4cc(N5C6CCC5CN(c5cc(-c7ccccc7OCc7ccc(NC(=O)[C@H](CCCCN(C)C)NC(=O)C8(C(=O)NCCCCCNC(=O)[C@H](CO)N9C(=O)C=CC9=O)CCC8)cc7)nnc5N)C6)ccn4)C3)CC2)no1` [Hy-B-CIDE-12], at BRM (setting [2]), the DC50 is 12.6 µM and the “DCmax (NCI-H1944)” value came to 60.

For the molecule `CC(C)[C@@H](C(=O)N1C[C@H](OP(=O)(O)O)C[C@H]1C(=O)N[C@@H](C)c1ccc(C#N)cc1)c1cc(OCCN2CCC(O[C@H]3C[C@H](Oc4cc(N5C6CCC5CN(c5cc(-c7ccccc7OCc7ccc(NC(=O)[C@H](CCCCN(C)C)NC(=O)C8(C(=O)NCCN(C)CCN9C(=O)C=CC9=O)CCC8)cc7)nnc5N)C6)ccn4)C3)CC2)no1` [Hy-B-PCIDE-2], the Stability entry in data set [1] is given as “Stable”. Besides, the “DCmax (NCI-H1944)” value on BRM (setting [3]) was 42.

The values are drawn from patent US20250064968A1, “ANTIBODY-CONJUGATED CHEMICAL […] OF D[…] H[…] LINKERS AND METHODS THEREOF” (Genentech, Inc., priority 2022, published 2025).
